Assay results from ChEMBL document CHEMBL4376892, “Identification of Parthenolide Dimers as Activators of Pyruvate Kinase M2 in Xenografts of Glioblastoma Multiforme in Vivo” (J Med Chem, 2020).
Blank lines part the entries; values can stand above or below the compound they belong to. The source made the active and inactive calls. No cut-off for these calls is given here.

Key:
U-251 = assay: Antiproliferative activity against human U251 cells assessed as reduction in cell viability after 72 hrs by MTT assay; format: functional, cell-based; settings: U-251, 72 h
U-87 MG = assay: Antiproliferative activity against human U87 cells assessed as reduction in cell viability after 72 hrs by MTT assay; format: functional, cell-based, U-87MG ATCC
[1] = Antiproliferative activity against human SHG44 cells assessed as reduction in cell viability after 72 hrs by MTT assay; format: functional, cell-based; settings: SHG-44, 72 h
NIH3T3 = assay: Cytotoxicity against mouse 3T3 cells assessed as reduction in cell viability after 72 hrs by MTT assay; format: cell-based; settings: NIH3T3, 72 h
Pyruvate kinase PKM [2] = target: T1, Pyruvate kinase PKM (Homo sapiens, UniProt P14618); assay: Activation of recombinant human N-terminal 6His-tagged PKM2 expressed in Escherichia coli BL21 cells at 10 uM after 30 mins by fluorescence based analysis relative to control
Target sequence in this assay (P14618 2-531 limits assumed): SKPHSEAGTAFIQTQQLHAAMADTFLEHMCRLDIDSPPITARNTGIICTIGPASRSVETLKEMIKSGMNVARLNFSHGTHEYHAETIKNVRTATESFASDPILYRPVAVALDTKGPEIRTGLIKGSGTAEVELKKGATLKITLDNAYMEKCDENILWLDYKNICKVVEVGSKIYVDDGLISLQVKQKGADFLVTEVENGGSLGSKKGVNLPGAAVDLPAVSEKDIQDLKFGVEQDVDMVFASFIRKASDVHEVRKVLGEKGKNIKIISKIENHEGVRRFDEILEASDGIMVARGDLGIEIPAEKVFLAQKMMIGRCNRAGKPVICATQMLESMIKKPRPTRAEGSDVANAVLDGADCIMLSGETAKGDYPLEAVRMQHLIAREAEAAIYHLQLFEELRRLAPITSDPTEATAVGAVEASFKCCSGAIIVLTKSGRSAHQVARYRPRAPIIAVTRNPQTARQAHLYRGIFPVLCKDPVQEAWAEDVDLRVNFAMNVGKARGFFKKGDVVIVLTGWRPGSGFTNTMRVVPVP

C6 = assay: Antiproliferative activity against rat C6 cells assessed as reduction in cell viability after 72 hrs by MTT assay; format: functional, cell-based; settings: C6, 72 h
U-118-MG [3] = assay: Antiproliferative activity against human U118MG cells assessed as reduction in cell viability after 72 hrs by MTT assay; format: functional, cell-based
SF-126 = assay: Antiproliferative activity against human SF126 cells assessed as reduction in cell viability after 72 hrs by MTT assay; format: functional, cell-based; settings: SF-126, 72 h
Pyruvate kinase PKM [4] = target: T1, Pyruvate kinase PKM; assay: Activation of recombinant human N-terminal 6His-tagged PKM2 expressed in Escherichia coli BL21 cells after 50 mins by fluorescence based analysis
Target sequence in this assay (P14618 whole entry): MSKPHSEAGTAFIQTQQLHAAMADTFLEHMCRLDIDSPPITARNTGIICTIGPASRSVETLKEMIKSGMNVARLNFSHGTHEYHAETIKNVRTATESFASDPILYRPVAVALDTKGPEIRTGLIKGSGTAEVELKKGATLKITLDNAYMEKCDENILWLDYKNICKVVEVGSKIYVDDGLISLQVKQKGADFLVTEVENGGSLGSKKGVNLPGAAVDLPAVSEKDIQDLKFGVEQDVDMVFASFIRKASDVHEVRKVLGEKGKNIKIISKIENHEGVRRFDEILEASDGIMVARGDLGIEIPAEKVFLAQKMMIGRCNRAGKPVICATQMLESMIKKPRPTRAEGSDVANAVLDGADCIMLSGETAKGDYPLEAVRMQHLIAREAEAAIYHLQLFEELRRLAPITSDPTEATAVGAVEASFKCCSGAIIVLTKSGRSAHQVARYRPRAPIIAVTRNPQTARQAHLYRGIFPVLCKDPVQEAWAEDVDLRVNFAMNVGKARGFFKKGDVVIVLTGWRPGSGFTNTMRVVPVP

Mus musculus [5] = assay: Increase in Bax protein expression in tumor of Bar b/c nude mouse xenografted with human U118MG cells at 50 mg/kg, ip adminstered every 3 days for 3 weeks and measured after 20 days by Western blot analysis; format: functional, organism-based
Mus musculus [6] = assay: Reduction in STAT3 protein expression in tumor of Bar b/c nude mouse xenografted with human U118MG cells at 50 mg/kg, ip adminstered every 3 days for 3 weeks and measured after 20 days by Western blot analysis; format: functional, organism-based
Mus musculus [7] = assay: Reduction in vimentin protein expression in tumor of siPKM2-treated Bar b/c nude mouse xenografted with human U118MG cells at 50 mg/kg, ip adminstered twice weekly for 3 weeks and measured after 20 days by immunohistochemical analysis; format: functional, organism-based
Mus musculus [8] = assay: Reduction in Bcl2 gene expression in tumor of Bar b/c nude mouse xenografted with human U118MG cells at 50 mg/kg, ip adminstered every 3 days for 3 weeks; format: functional, organism-based
Mus musculus [9] = assay: Reduction in phosphorylated STAT3 expression in tumor of siPKM2-treated Bar b/c nude mouse xenografted with human U118MG cells at 50 mg/kg, ip adminstered twice weekly for 3 weeks and measured after 20 days by immunohistochemical analysis; format: functional, organism-based
Mus musculus [10] = assay: Increase in bax protein expression in tumor of siPKM2-treated Bar b/c nude mouse xenografted with human U118MG cells at 50 mg/kg, ip adminstered twice weekly for 3 weeks and measured after 20 days by immunohistochemical analysis; format: functional, organism-based
Mus musculus [11] = assay: Increase in E-cadherin protein expression in tumor of siPKM2-treated Bar b/c nude mouse xenografted with human U118MG cells at 50 mg/kg, ip adminstered twice weekly for 3 weeks and measured after 20 days by immunohistochemical analysis; format: functional, organism-based
Mus musculus [12] = assay: Reduction in vimentin protein expression in tumor of Bar b/c nude mouse xenografted with human U118MG cells at 50 mg/kg, ip adminstered twice weekly for 3 weeks and measured after 20 days by immunohistochemical analysis; format: functional, organism-based
Mus musculus [13] = assay: Increase in E-cadherin protein expression in tumor of Bar b/c nude mouse xenografted with human U118MG cells at 50 mg/kg, ip adminstered every 3 days for 3 weeks and measured after 20 days by Western blot analysis; format: functional, organism-based
U-118-MG [14] = assay: Antitumor activity against human U118MG cells xenografted in siPKM2-treated Bar b/c nude mouse assessed as tumor growth at 50 mg/kg, ip adminstered twice weekly for 3 weeks measured every 3 days for 20 days by caliper method; format: functional, organism-based
Mus musculus [15] = assay: Reduction in STAT3 gene expression in tumor of Bar b/c nude mouse xenografted with human U118MG cells at 50 mg/kg, ip adminstered every 3 days for 3 weeks; format: functional, organism-based
U-118-MG [16] = assay: Antitumor activity against human U118MG cells xenografted in Bar b/c nude mouse assessed as reduction in tumor weight at 50 mg/kg, ip adminstered twice weekly for 3 weeks and measured every 3 days for 20 days by caliper method; format: functional, organism-based
[17] = Toxicity in Bar b/c nude mouse xenografted with human U118MG cells assessed as effect on body weight at 50 mg/kg, ip adminstered twice weekly for 3 weeks and measured every 3 days for 20 days; format: organism-based; settings: in vivo, 480 h
Mus musculus [18] = assay: Increase in E-cadherin protein expression in tumor of Bar b/c nude mouse xenografted with human U118MG cells at 50 mg/kg, ip adminstered twice weekly for 3 weeks and measured after 20 days by immunohistochemical analysis; format: functional, organism-based
Mus musculus [19] = assay: Increase in bax protein expression in tumor of Bar b/c nude mouse xenografted with human U118MG cells at 50 mg/kg, ip adminstered twice weekly for 3 weeks and measured after 20 days by immunohistochemical analysis; format: functional, organism-based
Mus musculus [20] = assay: Reduction in Bcl2 protein expression in tumor of siPKM2-treated Bar b/c nude mouse xenografted with human U118MG cells at 50 mg/kg, ip adminstered twice weekly for 3 weeks and measured after 20 days by immunohistochemical analysis; format: functional, organism-based
Mus musculus [21] = assay: Reduction in phosphorylated STAT3 expression in tumor of Bar b/c nude mouse xenografted with human U118MG cells at 50 mg/kg, ip adminstered twice weekly for 3 weeks and measured after 20 days by immunohistochemical analysis; format: functional, organism-based
Mus musculus [22] = assay: Increase in E-cadherin gene expression in tumor of Bar b/c nude mouse xenografted with human U118MG cells at 50 mg/kg, ip adminstered every 3 days for 3 weeks; format: functional, organism-based
Mus musculus [23] = assay: Reduction in vimentin protein expression in tumor of Bar b/c nude mouse xenografted with human U118MG cells at 50 mg/kg, ip adminstered every 3 days for 3 weeks and measured after 20 days by Western blot analysis; format: functional, organism-based
Mus musculus [24] = assay: Reduction in Bcl2 protein expression in tumor of Bar b/c nude mouse xenografted with human U118MG cells at 50 mg/kg, ip adminstered every 3 days for 3 weeks and measured after 20 days by Western blot analysis; format: functional, organism-based
Mus musculus [25] = assay: Reduction in Bcl2 protein expression in tumor of Bar b/c nude mouse xenografted with human U118MG cells at 50 mg/kg, ip adminstered twice weekly for 3 weeks and measured after 20 days by immunohistochemical analysis; format: functional, organism-based
U-118-MG [26] = assay: Antitumor activity against human U118MG cells xenografted in Bar b/c nude mouse assessed as reduction in tumor growth at 50 mg/kg, ip adminstered twice weekly for 3 weeks and measured every 3 days for 20 days by caliper method; format: functional, organism-based

Compound: C=C1C(=O)O[C@H]2[C@H]1CC/C(C(=O)OCCOCCOCCOCCOC(=O)/C1=C/CC[C@@]3(C)O[C@H]3[C@H]3OC(=O)C(=C)[C@@H]3CC1)=C\CC[C@@]1(C)O[C@@H]21
IC50 (U-251): 16.6 µM
IC50 (U-87 MG): 9.13 µM
IC50 [1]: 16.3 µM
IC50 (NIH3T3): 16.1 µM
fold change (FC) (Pyruvate kinase PKM [2]): > 2
IC50 (C6): 4.26 µM
IC50 (U-118-MG [3]): 7.97 µM
IC50 (SF-126): 20.1 µM

Compound: C=C1C(=O)O[C@H]2[C@H]1CC/C(C(=O)OCCOCCOCCOC(=O)/C1=C/CC[C@@]3(C)O[C@H]3[C@H]3OC(=O)C(=C)[C@@H]3CC1)=C\CC[C@@]1(C)O[C@@H]21
IC50 (U-251): 9.59 µM
IC50 (U-87 MG): 3.09 µM
IC50 [1]: 10.5 µM
IC50 (NIH3T3): 7.86 µM
fold change (FC) (Pyruvate kinase PKM [2]): > 2
IC50 (C6): 1.59 µM
AC50 (Pyruvate kinase PKM [4]): 0.052 µM
IC50 (U-118-MG [3]): 2.87 µM
IC50 (SF-126): 10.2 µM

Compound: C=C1C(=O)O[C@H]2[C@H]1CC/C(C(=O)OCCOCCOCCOCCOCCOCCOCCOCCOC(=O)/C1=C/CC[C@@]3(C)O[C@H]3[C@H]3OC(=O)C(=C)[C@@H]3CC1)=C\CC[C@@]1(C)O[C@@H]21
IC50 (U-251): > 50 µM
IC50 (U-87 MG): 12.9 µM
IC50 [1]: 25.7 µM
IC50 (NIH3T3): 22 µM
fold change (FC) (Pyruvate kinase PKM [2]): > 2
IC50 (C6): 4.98 µM
AC50 (Pyruvate kinase PKM [4]): 0.065 µM
IC50 (U-118-MG [3]): 11.8 µM
IC50 (SF-126): > 50 µM

Compound: CN(C)C[C@@H]1C(=O)O[C@H]2[C@H]1CC/C(C(=O)OCCOCCOC(=O)/C1=C/CC[C@@]3(C)O[C@H]3[C@H]3OC(=O)[C@@H](CN(C)C)[C@@H]3CC1)=C\CC[C@@]1(C)O[C@@H]21.O=C(O)/C=C/C(=O)O.O=C(O)/C=C/C(=O)O
Activity (Mus musculus [5]): Active
inhibition (Mus musculus [6]): Active
inhibition (Mus musculus [7]): inactive
inhibition (Mus musculus [8]): Active
inhibition (Mus musculus [9]): inactive
Activity (Mus musculus [10]): inactive
Activity (Mus musculus [11]): inactive
inhibition (Mus musculus [12]): Active
Activity (Mus musculus [13]): Active
Activity (U-118-MG [14]): inactive
inhibition (Mus musculus [15]): Active
Activity (U-118-MG [16]): Active
Activity [17]: Non-Toxic
Activity (Mus musculus [18]): Active
Activity (Mus musculus [19]): Active
inhibition (Mus musculus [20]): inactive
inhibition (Mus musculus [21]): Active
Activity (Mus musculus [22]): Active
inhibition (Mus musculus [23]): Active
inhibition (Mus musculus [24]): Active
inhibition (Mus musculus [25]): Active
Activity (U-118-MG [26]): Active

Compound: C=C1C(=O)O[C@H]2[C@H]1CC/C(C(=O)OCCOCCOCCOCCOCCOC(=O)/C1=C/CC[C@@]3(C)O[C@H]3[C@H]3OC(=O)C(=C)[C@@H]3CC1)=C\CC[C@@]1(C)O[C@@H]21
IC50 (U-251): 14.1 µM
IC50 (U-87 MG): 10.6 µM
IC50 [1]: 18.5 µM
IC50 (NIH3T3): 18.8 µM
fold change (FC) (Pyruvate kinase PKM [2]): > 2
IC50 (C6): 4.82 µM
IC50 (U-118-MG [3]): 7.5 µM
IC50 (SF-126): 21 µM

Further lines, with some results ahead:

IC50 (U-251): > 50 µM
IC50 (U-87 MG): > 50 µM
fold change (FC) (Pyruvate kinase PKM [2]): > 2
Compound: C=C1C(=O)O[C@H]2[C@H]1CC/C(C(=O)OCCOCCOCCOCCOCCOCCOCCOCCOCCOCCOCCOCCOCCOCCOCCOCCOCCOCCOCCOCCOC(=O)/C1=C/CC[C@@]3(C)O[C@H]3[C@H]3OC(=O)C(=C)[C@@H]3CC1)=C\CC[C@@]1(C)O[C@@H]21
IC50 [1]: > 50 µM
IC50 (NIH3T3): > 50 µM
IC50 (C6): > 50 µM
IC50 (U-118-MG [3]): > 50 µM
IC50 (SF-126): > 50 µM

IC50 (U-251): > 50 µM
IC50 (U-87 MG): 16.2 µM
fold change (FC) (Pyruvate kinase PKM [2]): > 2
Compound: C=C1C(=O)O[C@H]2[C@H]1CC/C(C(=O)OCCOCCOCCOCCOCCOCCOCCOCCOCCOCCOCCOCCOC(=O)/C1=C/CC[C@@]3(C)O[C@H]3[C@H]3OC(=O)C(=C)[C@@H]3CC1)=C\CC[C@@]1(C)O[C@@H]21
IC50 [1]: 50.1 µM
IC50 (NIH3T3): > 50 µM
IC50 (C6): > 50 µM
IC50 (U-118-MG [3]): 17.4 µM
IC50 (SF-126): > 50 µM
